Tests used:
[1] = system: Normal human knee articular cartilage cells (NHAC-kn); assay: Inflammatory cytokine gene expression induction by LPA in human articular cartilage cells; assay type: cell-based; details: 10 μM LPA, n=4
Method: EDG2 is a GPCR having lysophosphatidic acid (LPA) as a ligand thereof. For LPA, four receptors, including EDG2, have been reported (EDG2, EDG4, EDG7 and GPR23). To analyze the tissue distributions of these four LPA receptors, an expression quantitation analysis by quantitative real-time PCR in various human tissues was performed. On 500 ng of total RNA of each of various human tissues (Human Total RNA Master Panel, Clontech), reverse transcription was performed using Multiscribe reverse transcriptase (Applied biosystems) and a random hexamer, whereby a cDNA was obtained. Quantitation of the LPA receptor genes was performed using QuantiTect STBR Green PCR (Qiagen) on the ABI PRISM 7700 sequence detection system (Applied biosystems) as directed in the documentation attached. The number of copies of each gene was calculated using a working curve. […]
The inflammatory cytokine expression induction reaction of LPA, which is a ligand of EDG2, in human articular cartilage cells was analyzed. […] Twelve hours after the medium replacement, the cells were stimulated with 10 μM LPA; 0, 2, 4, 8, 12 and 24 hours later, total RNA was extracted using ISOGEN (Nippon Gene), and the amounts expressed of TNFA and IL1B, which are inflammatory cytokine genes, were quantified by a method in accordance with Example 10. […]

EDG2 = EDG2 (Homo sapiens, UniProt Q92633); assay: Intracellular Ca2+ concentration (FLIPR tetra) in McA-RH7777 cells stably expressing EDG2; assay type: cell-based; design: Dainippon Pharmaceutical Co., Ltd. (cells); host or cells: McA-RH7777; details: 0.03 to 10 μM LPA
Sequence of EDG2 (Q92633 whole entry): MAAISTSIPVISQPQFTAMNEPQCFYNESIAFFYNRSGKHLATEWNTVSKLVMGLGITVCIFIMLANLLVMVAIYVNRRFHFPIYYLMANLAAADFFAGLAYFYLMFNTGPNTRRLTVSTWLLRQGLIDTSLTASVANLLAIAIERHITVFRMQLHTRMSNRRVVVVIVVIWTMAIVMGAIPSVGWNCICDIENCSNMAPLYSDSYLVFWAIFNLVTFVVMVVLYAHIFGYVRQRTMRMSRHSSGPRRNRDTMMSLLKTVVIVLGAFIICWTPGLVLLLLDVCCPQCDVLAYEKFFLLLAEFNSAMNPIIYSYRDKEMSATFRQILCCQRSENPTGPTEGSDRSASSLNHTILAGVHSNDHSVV
Method: A forcible expression vector comprising an ORF sequence of human EDG2 [hEDG2-pcDNA3.1(+)] was purchased from UMR cDNA Resource Center. This plasmid was introduced into McA-RH7777 (Dainippon Pharmaceutical Co., Ltd.) using Lipofectamine LTX (Invitrogen), and the cells were cultured in a medium containing Geneticin for 14 to 20 days to acquire cells that stably express EDG2.
Next, an evaluation was made using FLIPR tetra (Molecular Devices) to confirm that stimulation with LPA raised intracellular Ca concentrations via the EDG2 expressed. That is, these cells were seeded to a 384-well plate, 0.03 to 10 μM LPA (Sigma) was added to each well, and it was confirmed that rises in intracellular Ca^2+ concentration occurred. LPA dose-dependently.

rises in intracellular Ca2+ concentration (EDG2): dose-dependently
Compound: CCCCCCCC/C=C\CCCCCCCC(=O)OC[C@@H](O)COP(=O)(O)O [LPA, 1-Oleoyl-sn-Glycero-3-Phosphate]
IL1B gene expression ([1]; 0-24 hours): no expression raising reaction was observed
rise in amount expressed of the TNFA gene ([1]; transiently, 2 hours after addition): about 2 folds

— patent publication US20100239501A1, “GENE SENSITIVE TO BONE/JOINT DISEASE AND USE THEREOF” (RIKEN, priority 2007, published 2010)
